From PubChem BioAssay (NCI)
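A five-concentration, 48-hour dose response in 96-well plates underlies each endpoint, interpolated linearly between surrounding concentrations. TGI is the concentration that stops growth completely.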

Tests used:
Assay in all cases: growth of human tumour cells (NCI), 48 h
SF-268 CNS = test system: SF-268 CNS
HOP-92 NSCLC = test system: HOP-92 NSCLC
TK-10 renal = test system: TK-10 renal
A549 NSCLC = test system: A549 NSCLC
SN12C renal = test system: SN12C renal
SK-MEL-5 melanoma = test system: SK-MEL-5 melanoma
SK-OV-3 ovarian = test system: SK-OV-3 ovarian
SNB-75 CNS = test system: SNB-75 CNS
HOP-62 NSCLC = test system: HOP-62 NSCLC
RPMI-8226 leukemia = test system: RPMI-8226 leukemia
MDA-MB-435 = test system: MDA-MB-435
HS 578T breast = test system: HS 578T breast
U251 CNS = test system: U251 CNS
OVCAR-8 ovarian = test system: OVCAR-8 ovarian
EKVX NSCLC = test system: EKVX NSCLC
MDA-MB-231 breast = test system: MDA-MB-231 breast
HCT-116 colon = test system: HCT-116 colon
MDA-N = test system: MDA-N
OVCAR-5 ovarian = test system: OVCAR-5 ovarian
UACC-62 melanoma = test system: UACC-62 melanoma
RXF 393 renal = test system: RXF 393 renal
SNB-19 CNS = test system: SNB-19 CNS
MOLT-4 leukemia = test system: MOLT-4 leukemia
KM12 colon = test system: KM12 colon
ACHN renal = test system: ACHN renal
HCC-2998 colon = test system: HCC-2998 colon
NCI-H226 lung = test system: NCI-H226 lung
SF-539 CNS = test system: SF-539 CNS
SW-620 colon = test system: SW-620 colon
HT29 colon = test system: HT29 colon
SK-MEL-2 melanoma = test system: SK-MEL-2 melanoma
OVCAR-4 ovarian = test system: OVCAR-4 ovarian
T-47D breast = test system: T-47D breast
IGROV1 ovarian = test system: IGROV1 ovarian
UO-31 renal = test system: UO-31 renal
HL-60(TB) leukemia = test system: HL-60(TB) leukemia
NCI-H23 lung = test system: NCI-H23 lung
A498 renal = test system: A498 renal
M14 melanoma = test system: M14 melanoma
786-0 renal = test system: 786-0 renal
NCI-H460 lung = test system: NCI-H460 lung
BT-549 breast = test system: BT-549 breast
K-562 leukemia = test system: K-562 leukemia
OVCAR-3 ovarian = test system: OVCAR-3 ovarian
NCI/ADR-RES ovarian = test system: NCI/ADR-RES ovarian
DU-145 prostate = test system: DU-145 prostate
UACC-257 melanoma = test system: UACC-257 melanoma
SK-MEL-28 melanoma = test system: SK-MEL-28 melanoma
HCT-15 colon = test system: HCT-15 colon
COLO 205 colon = test system: COLO 205 colon
MCF7 breast = test system: MCF7 breast
SF-295 CNS = test system: SF-295 CNS
CCRF-CEM leukemia = test system: CCRF-CEM leukemia
LOX IMVI melanoma = test system: LOX IMVI melanoma
SR leukemia = test system: SR leukemia
NCI-H522 lung = test system: NCI-H522 lung
MALME-3M melanoma = test system: MALME-3M melanoma
PC-3 prostate = test system: PC-3 prostate

O=C(Cc1ccccc1)NN1C(=O)/C(=C\c2ccc(O)cc2)SC1=Nc1ccccc1
TGI (SF-268 CNS): > 100 µM
TGI (HOP-92 NSCLC): > 100 µM
TGI (TK-10 renal): > 100 µM
TGI (A549 NSCLC): > 100 µM
TGI (SN12C renal): > 100 µM
TGI (SK-MEL-5 melanoma): > 100 µM
TGI (SK-OV-3 ovarian): > 100 µM
TGI (SNB-75 CNS): > 100 µM
TGI (HOP-62 NSCLC): > 100 µM
TGI (RPMI-8226 leukemia): > 100 µM
TGI (MDA-MB-435): > 100 µM
TGI (HS 578T breast): > 100 µM
TGI (U251 CNS): > 100 µM
TGI (OVCAR-8 ovarian): > 100 µM
TGI (EKVX NSCLC): > 100 µM
TGI (MDA-MB-231 breast): > 100 µM
TGI (HCT-116 colon): > 100 µM
TGI (MDA-N): > 100 µM
TGI (OVCAR-5 ovarian): > 100 µM
TGI (UACC-62 melanoma): > 100 µM
TGI (RXF 393 renal): > 100 µM
TGI (SNB-19 CNS): > 100 µM
TGI (MOLT-4 leukemia): > 100 µM
TGI (KM12 colon): > 100 µM
TGI (ACHN renal): > 100 µM
TGI (HCC-2998 colon): > 100 µM
TGI (NCI-H226 lung): > 100 µM
TGI (SF-539 CNS): > 100 µM
TGI (SW-620 colon): > 100 µM
TGI (HT29 colon): > 100 µM
TGI (SK-MEL-2 melanoma): > 100 µM
TGI (OVCAR-4 ovarian): > 100 µM
TGI (T-47D breast): > 100 µM
TGI (IGROV1 ovarian): > 100 µM
TGI (UO-31 renal): > 100 µM
TGI (HL-60(TB) leukemia): > 100 µM
TGI (NCI-H23 lung): > 100 µM
TGI (A498 renal): > 100 µM
TGI (M14 melanoma): > 100 µM
TGI (786-0 renal): > 100 µM
TGI (NCI-H460 lung): > 100 µM
TGI (BT-549 breast): > 100 µM
TGI (K-562 leukemia): > 100 µM
TGI (OVCAR-3 ovarian): > 100 µM
TGI (NCI/ADR-RES ovarian): > 100 µM
TGI (DU-145 prostate): > 100 µM
TGI (UACC-257 melanoma): > 100 µM
TGI (SK-MEL-28 melanoma): > 100 µM
TGI (HCT-15 colon): > 100 µM
TGI (COLO 205 colon): > 100 µM
TGI (MCF7 breast): > 100 µM
TGI (SF-295 CNS): > 100 µM
TGI (CCRF-CEM leukemia): > 100 µM

O=C1c2ccccc2C(=O)N1c1nc(-c2ccc(Cl)cc2)cc(N2N=C(c3ccc(Br)cc3)CC2c2ccccc2)n1 (stereo unspecified)
TGI (SF-268 CNS): 7.72 µM
TGI (LOX IMVI melanoma): 3.78 µM
TGI (HOP-92 NSCLC): 82.3 µM
TGI (TK-10 renal): > 49 µM
TGI (A549 NSCLC): 17.4 µM
TGI (SN12C renal): 17.1 µM
TGI (SK-MEL-5 melanoma): 5.02 µM
TGI (SK-OV-3 ovarian): > 46.1 µM
TGI (HOP-62 NSCLC): > 23 µM
TGI (RPMI-8226 leukemia): 11.7 µM
TGI (MDA-MB-435): 2.62 µM
TGI (HS 578T breast): 20.8 µM
TGI (SR leukemia): 2.42 µM
TGI (U251 CNS): 5.99 µM
TGI (OVCAR-8 ovarian): > 24.1 µM
TGI (EKVX NSCLC): 5.99 µM
TGI (MDA-MB-231 breast): 23.3 µM
TGI (HCT-116 colon): > 20.5 µM
TGI (MDA-N): 4.57 µM
TGI (UACC-62 melanoma): 11.5 µM
TGI (SNB-19 CNS): > 33.8 µM
TGI (MOLT-4 leukemia): > 23.7 µM
TGI (KM12 colon): > 63.9 µM
TGI (ACHN renal): > 21.7 µM
TGI (HCC-2998 colon): 0.966 µM
TGI (NCI-H226 lung): 29.8 µM
TGI (SF-539 CNS): 4.41 µM
TGI (HT29 colon): 9.66 µM
TGI (NCI-H522 lung): 5.51 µM
TGI (SK-MEL-2 melanoma): > 42.2 µM
TGI (OVCAR-4 ovarian): > 33 µM
TGI (T-47D breast): 5.26 µM
TGI (IGROV1 ovarian): > 32.6 µM
TGI (HL-60(TB) leukemia): > 100 µM
TGI (NCI-H23 lung): > 22.6 µM
TGI (A498 renal): 35.4 µM
TGI (M14 melanoma): > 36.1 µM
TGI (MALME-3M melanoma): > 60.6 µM
TGI (PC-3 prostate): > 27.5 µM
TGI (786-0 renal): > 34.1 µM
TGI (NCI-H460 lung): > 41.9 µM
TGI (BT-549 breast): 16.8 µM
TGI (K-562 leukemia): > 100 µM
TGI (OVCAR-3 ovarian): 2.65 µM
TGI (NCI/ADR-RES ovarian): 6.05 µM
TGI (DU-145 prostate): > 23.3 µM
TGI (UACC-257 melanoma): > 41.4 µM
TGI (SK-MEL-28 melanoma): 21.4 µM
TGI (HCT-15 colon): 7.14 µM
TGI (COLO 205 colon): 4.84 µM
TGI (MCF7 breast): 4.57 µM
TGI (SF-295 CNS): 3.65 µM
TGI (CCRF-CEM leukemia): > 29.6 µM
